Assay results from patent publication US20160021879A1, “SYNTHETIC LIPOAMINO ACID GLUCOSAMINE DERIVATIVES FOR IMPROVEMENT OF PLANT GROWTH AND YIELD” (E.I. DU PONT DE NEMOURS AND COMPANY, priority 2013, published 2016).

Columns and labels:
[1] = tested on: soybean seeds; experiment: Plant growth assay (radical length of germinated soybean seeds); type: in vivo; conditions: control 55%; for percentage of germinated soybean seeds with radical length greater than 1.5 cm: 10^-7 M, germinated 24 h, then light for additional 40 h; for Growth Assay: summary table, seeds with radical length > 1.5 cm
Method: Seeds germinated for 24 h using the seed germination assay above were exposed to light for an additional 40 h. The radical length was measured and the percentage of germinating seeds with a radical length greater than 1.5 cm was determined.

[2] = tested on: soybean seeds; experiment: Seed germination assay (soybean seeds in Petri dishes, radicle emergence counted); type: in vivo; conditions: control 24%; for percent germination of treated soybean seeds: 10^-7 M in DI-water, at 20 h, dark, room temperature; for Germination Yield: summary table, 10^-7 M, 20 h
Method: Materials were all sterilized before use. An aqueous solution of the test compound (25 mL, 10^−7 M in DI-water) was prepared for a set of five repeat experiments. Five Petri dishes and 100 soybean seeds were used to test one compound. A piece of Whatman filter paper was used to cover the inner side of each Petri dish to allow uniform distribution of testing solution. Twenty soybean seeds were placed on the filter paper area of one Petri dish. Five mL of the test compound solution was carefully poured in the Petri dish. Control experiments were set up the same way with 20 soybean seeds and 5 mL of DI-water per dish without any compounds. The lid was placed on the Petri dish and sealed with Parafilm. Five dishes with repeat experiments were stacked. One stack of dishes was wrapped twice with aluminum foil to prevent the seeds from receiving any light. The stacks were transferred to an incubator maintained at room temperature and the seeds were germinated in the dark. After 20 h, the stacks were pulled out for measurement. The number of germinated seeds was counted and the percent germination on each dish was calculated. Radicle emergence was used as the germination indicator. The dishes were placed unwrapped at room temperature for one day and the number of germinated seeds was counted to ensure seeds were viable and that the germination results were not caused by poor seed quality. Dishes in which over 90% of the seeds germinated were considered normal. The standard deviation of five repeats was calculated. Test results with a 10% or lower standard deviation were considered good. Compounds acting as plant performance enhancers should promote a statistically significant increase in average percentage of germination compared to the control.

| Compound | percentage of germinated soybean seeds with radical length greater than 1.5 cm [1] | Growth Assay [1] | percent germination of treated soybean seeds [2] | Germination Yield [2] |
| --- | --- | --- | --- | --- |
| CO[C@@H]1O[C@H](CO)[C@@H](O)[C@H](O)[C@H]1NC(=O)[C@H](Cc1ccccc1)NC(=O)/C=C/C=C/c1ccccc1 [Compound 13, Methyl 2-deoxy-2-({N-[(2E,4E)-5-phenylpenta-2,4-dienoyl]phenylalanyl}amino)-β-D-glucopyranoside] | 80% | 80% | 32% | 32% |
| CCCCCC/C=C/CCCCCCC/C=C/C(=O)NCC(=O)NC1C(OC2C(CO)OC(OC3C(CO)OC(OC4C(CO)OC(OC)C(NC(C)=O)C4O)C(NC(C)=O)C3O)C(NC(C)=O)C2O)OC(CO)C(O)C1O [Compound 21, Methyl 2-deoxy-2-N-({[(2E,11E)-octadeca-2,11-dienoylamino]acetyl}amino)β-D-glucopyranosyl(1→4)-2-acetamido-2-deoxy-β-D-glucopyranosyl-(1→4)-2 acetamido-2-deoxy-β-D-glucopyranosyl-(1→4)-2 acetamido-2-deoxy-β-D-glucopyranoside] | 73% | 73% | 36% | 36% |
| CCCCCC/C=C\CCCCCCCC(=O)NCC(=O)NC1C(OC)OC(CO)C(O)C1O [Compound 9, Methyl 2-deoxy-2-N-({[(9Z)-hexadec-9-enoylamino]acetyl}amino)-β-D-glucopyranoside] | 73% | 73% | 33% | 33% |
| COC(=O)C(CCC(=O)NC1C(OC)OC(CO)C(O)C1O)NC(=O)/C=C/C=C/c1ccccc1 (centres unmarked) [Compound 15, methyl 5-{[4,5-dihydroxy-6-(hydroxymethyl)-2-methoxytetrahydro-2H-pyran-3-yl]amino}-5-oxo-2-{[(2E,4E)-5-phenylpenta-2,4-dienoyl]amino}pentanoate] | 74% | 74% | 31% | 31% |
| COC1OC(CO)C(O)C(O)C1NC(=O)CNC(=O)C#Cc1ccccc1 [Compound 19, Methyl 2-deoxy-2-N-({[(3-phenylprop-2-ynoyl)amino]acetyl}amino)-β-D-glucopyranoside] | 71% | 71% | 30% | 30% |
| CO[C@@H]1O[C@H](CO)[C@@H](O)[C@H](O)[C@H]1NC(=O)CNC(=O)/C=C/C=C/c1ccccc1 [Compound 11, methyl 2-deoxy-2-[({[(2E,4E)-5-phenylpenta-2,4-dienoyl]amino}acetyl)amino]-β-D-glucopyranoside] | 82% | 82% | 39% | 39% |
| CCCCCC/C=C\CCCCCCC/C=C/C(=O)NCC(=O)NC1C(OC)OC(CO)C(O)C1O (centres unmarked) [Compound 7, methyl 2-deoxy-2-({[(2E,11Z)-octadeca-2,11-dienoylamino]acetyl}amino)hexopyranoside] | 79% | 79% | 46% | 46% |
| CO[C@@H]1O[C@H](CO)[C@@H](O)[C@H](O)[C@H]1NC(=O)CNC(=O)/C=C/c1cccc(C(F)(F)F)c1 [Compound 17, methyl 2-deoxy-2-{[({(2E)-3-[3-(trifluoromethyl)phenyl]prop-2-enoyl}amino)acetyl]amino}-β-D-glucopyranoside] | 86% | 86% | 44% | 44% |
